Measurements published in patent EP1614416A2, “Method for treating amyloidosis” (QUEEN'S UNIVERSITY AT KINGSTON, priority 1993, dated 1994).
Counter-ions that a name gives are not always drawn.

Tests used:
Assay type in all cases: in vivo, mice
[1] = system: AA splenic amyloid deposition; assay: Chronic amyloidosis (LPS + AEF, inflammatory stimulus maintained), oral treatment from day 7, Experiments 5 and 6
Method: (§1) In the following experiments, a well-characterized mouse model of amyloidosis was used. In this in vivo system, animals receive an inflammatory stimulus and amyloid enhancing factor. For acute amyloidosis (i.e., short term amyloid deposition), the inflammatory stimulus is AgNO3. For chronic amyloidosis (ongoing amyloid deposition), the inflammatory stimulus is lipopolysaccharide (LPS). Amyloid deposition (AA amyloid) in the spleens of mice was measured with and without therapeutic treatment.
To maintain the inflammation and the blood SAA levels, and allow amyloid to be continuously deposited for the duration of a longer term experiment, the nature of the inflammatory stimulus was changed. So as to maintain the inflammation, animals received lipopolysaccharide (LPS, 20 µg)+ AEF on day 0 and LPS was given by intraperitoneal injection every 2nd day. On day seven (7), the animals were separated into two groups as described in Experiment 4. Assessment of amyloid over the course of the experiment proceeded as described in Experiment 4. The control group (triangles) continued to deposit amyloid for the entire 17 day period. Those receiving PVS apparently stopped depositing amyloid by day 14 (open circles and dashed line). The data on day 17 represent 4 animals per group as one animal was omitted from this time period. The quantity of amyloid in this particular individual was so far removed from all other data points (treated or not, it was 21%) that it is believed that this was a statistically valid procedure. If this individual is included, the curve is represented by the dotted line and the remaining open circle. It should be pointed out that animals receiving PVS began to develop a significant diarrhea as the experiment proceeded.
In this experiment, another sulfonated compound, ethane monosulfate was used to inhibit amyloidosis. Ethane monosulfonate, sodium salt, (EMS) is structurally the monomeric unit of PVS. Animals were given LPS + AEF as in Experiment 5, but on day seven EMS was used in the drinking water as the therapeutic agent. […]

amyloid deposition = assay: Acute amyloidosis (AgNO3 + AEF), oral sulfonated lower aliphatics, visual examination of spleen sections, Experiment 8; details: 50 µM in drinking water, six days; preliminary visual analysis of spleen sections
Method: Acute amyloidosis was elicited in mice with AgNO3 and amyloid enhancing factor as described in Experiment 2. Twenty-four hours later, the animals were divided into a control group and six test groups. The control group was maintained on standard laboratory mouse chow and tap water ad. lib. The test groups received standard chow but their water contained 50 µM of one of the following six compounds: ethanesulfonic acid sodium salt, 2-amino-ethanesulfonic acid sodium salt (taurine), propane-1-sulfonic acid sodium salt, ethane-1,2-disulfonic acid sodium salt, propane-1,3-disulfonic acid sodium salt, or butane-1,4-disulfonic acid sodium salt. Water intake was approximately equivalent for all groups. After six days, the animals were sacrificed and their spleens were processed as described for Experiment 2. For preliminary analysis, the spleen sections were examined visually under a microscope for differences in amyloid deposition in the treated animals versus the control animals.

[2] = system: AA amyloid deposition in mouse spleen; assay: Acute AA amyloidosis mouse model (AgNO3 + AEF), intraperitoneal treatment, Experiment 1; details: 36.5 mg/injection IP every 8 hours, mean ± S.E.M., n = 5, untreated 7.8, p ≤ 0.02, immunostained sections, image analysis
Method: as §1
All mice were of the CD strain (Charles Rivers, Montreal, Quebec) and weighing 25-30 g. […]
At the termination of the experiments, the animals were sacrificed by cervical dislocation and the spleens, livers, and kidneys were fixed in 96% ethanol, 1% glacial acetic acid and 3% water as described in Lyon, A.W. et al. ("Co-deposition of Basement Membrane Components During the Induction of Murine Splenic AA Amyloid" Lab. Invest. 64:785-790 (1991)). […] The histologic sections viewed under polarized light were assessed by image analysis for the percent of spleen occupied by amyloid. In the case of the experiments with sucrose octasulfate, the tissues were immunostained with an antibody to the SAA protein (described in Lyon A.W. et al. Lab Invest. 64:785-790 (1991)) and the immunostained sections assessed by image analysis for the percent of tissue section occupied by amyloid.

[3] = Viability of animals under intraperitoneal therapy, Experiment 1
Method: All animals received AgNO3 (0.5 ml, 2% solution) subcutaneously in the back, and amyloid enhancing factor (AEF) 100 µg intravenously. The preparation of amyloid enhancing factor has been described previously in Axelrad, M.A. et al. ("Further Characterization of Amyloid Enhancing Factor" Lab. Invest. 47:139-146 (1982)). The animals were divided into several groups one of which was an untreated control group which was sacrificed six days later. The remaining animals were divided into those which received poly(vinyl sulfonic acid sodium salt) (PVS) at 50 mg, 40 mg, 20 mg, or 10mg by intraperitoneal injection every 12 hours or sucrose octasulfate ammonium salt (SOA) at 73 mg or 36.5 mg every 8 hours by IP injection. Surviving animals were sacrificed on the 5th day of treatment. In all cases the PVS or SOA was dissolved in a sterile aqueous carrier.
All control animals survived the experiment without incident. […] Animals receiving 36.5 mg of sucrose octasulfate/injection all survived. […] In all cases of animal deaths prior to the end of the experiments, the cause of death was uncontrolled intraperitoneal hemorrhage.
Intraperitoneal injection was selected as providing a large membrane surface for ease of access to the circulating system. […]

With `CCS(=O)(=O)O` [EMS, Ethane monosulfonate, sodium salt] the “course of splenic amyloid deposition (Figure 8)” value ([1]; 6 mg/ml EMS in drinking water from day 7) was “stopped depositing amyloid after day 14”, the gastrointestinal side effect ([1]; EMS 2.5 or 6 mg/ml in drinking water) was “did not develop gastrointestinal problems” and the “inhibition of chronic amyloid deposition” value ([1]; restated in Experiment 8 with reference to Experiment 6) was “has been observed to inhibit chronic amyloid deposition”. For the same molecule, the “amyloid deposition versus control animals” value (amyloid deposition) was “not observed to have less amyloid deposition than control animals”.

With `O=S(=O)([O-])CCCCS(=O)(=O)[O-].[Na+].[Na+]` [butane-1,4-disulfonic acid sodium salt] the “amyloid deposition versus control animals” value (amyloid deposition) was “not observed to have less amyloid deposition than control animals”.

For `O=S(=O)([O-])CCS(=O)(=O)[O-].[Na+].[Na+]` [ethane-1,2-disulfonic acid sodium salt], the “amyloid deposition versus control animals” value (amyloid deposition) was “less amyloid deposition than control animals”.

For `O=S(=O)([O-])CCCS(=O)(=O)[O-].[Na+].[Na+]` [propane-1,3-disulfonic acid sodium salt], the “amyloid deposition versus control animals” value (amyloid deposition) was “less amyloid deposition than control animals”.

With `CCCS(=O)(=O)[O-].[Na+]` [propane-1-sulfonic acid sodium salt] the “amyloid deposition versus control animals” value (amyloid deposition) was “less amyloid deposition than control animals”.

In the case of `N.N.N.N.N.N.N.N.O=S(=O)(O)OC[C@H]1O[C@@](COS(=O)(=O)O)(O[C@H]2O[C@H](COS(=O)(=O)O)[C@@H](OS(=O)(=O)O)[C@H](OS(=O)(=O)O)[C@H]2OS(=O)(=O)O)[C@@H](OS(=O)(=O)O)[C@@H]1OS(=O)(=O)O` [sucrose octasulfate, sucrose octasulfate ammonium salt], the “% Area Occupied by Amyloid” value ([2]; ammonium salt) is reported as 3.2% ± 0.5%, the “% Area Occupied by Amyloid” value ([2]; listed as Sucrose OctaSO4, ammonium salt) is reported as 3.2 ± 0.5% and the viability of animals ([3]; 36.5 mg/injection IP every 8 hours) is reported as “all survived”. For the same molecule, the viability of animals ([3]; 73 mg/injection IP every 8 hours, cause of death intraperitoneal hemorrhage) was “succumbed prior to the termination of the experiment”.

With `NCCS(=O)(=O)[O-].[Na+]` [taurine sodium salt, 2-amino-ethanesulfonic acid sodium salt] the “amyloid deposition versus control animals” value (amyloid deposition) was “not observed to have less amyloid deposition than control animals”.
